Results: PMC7377239, “Cardiovascular Effects of Polychlorinated Biphenyls and Their Major Metabolites” (Environmental Health Perspectives, 2020)
Where two headings read alike, the source gives them in different places.

System: iCell cardiomyocytes (human iPSC-derived cardiomyocytes)
Experiment: Intracellular Ca2+ flux / beating parameters in iCell cardiomyocytes (FLIPR tetra), 90 min or 24 h
Type: cell-based
Conditions: 0.00 µM = 100.00; for activity at 0.01 µM / activity at 0.1 µM / activity at 1 µM / activity at 10 µM / activity at 100 µM: Homo sapiens, Cardiomyocyte
How it was run: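 Gelatin-plated iCell cardiomyocytes (5,000/well) were dye-loaded for 2 h at 37 °C, then exposed for 90 min or 24 h to PCBs/metabolites (5× plates at 0.05–500 µM; 0.5% DMSO final) in triplicate. Ca2+ flux was read for 100 s at 8 Hz and 37 °C. Peak height, frequency, spacing CV and decay/rise ratio were vehicle-normalized and fitted with a four-parameter logistic model, with POD set at 1 SD of vehicle.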

Clc1ccc(Cl)c(-c2c(Cl)ccc(Cl)c2Cl)c1Cl [(+)-PCB 136, 2,2′,3,3′,6,6′-hexachlorobiphenyl]
cm.amp.avg.24hrs (0.01 µM, 24hrs): 54.01
cm.amp.cv.24hrs (0.01 µM, 24hrs): 158.80
cm.amp.avg.24hrs (0.10 µM, 24hrs): 107.99
cm.amp.cv.24hrs (0.10 µM, 24hrs): 72.89
cm.bpm.24hrs (0.10 µM, 24hrs): 96.42
cm.decay.rise.24hrs (0.10 µM, 24hrs): 106.79
cm.spacing.cv.24hrs (0.10 µM, 24hrs): 105.08
cm.amp.cv.24hrs (1.00 µM, 24hrs): 92.90
cm.bpm.24hrs (1.00 µM, 24hrs): 94.51
cm.decay.rise.24hrs (1.00 µM, 24hrs): 114.76
cm.spacing.cv.24hrs (1.00 µM, 24hrs): 110.09
cm.bpm.90min (10.00 µM, 90min): 82.76
cm.decay.rise.90min (10.00 µM, 90min): 115.77
cm.amp.avg.24hrs (10.00 µM, 24hrs): 0.00
cm.amp.cv.24hrs (10.00 µM, 24hrs): 0.00
cm.bpm.24hrs (10.00 µM, 24hrs): 0.00
cm.decay.rise.24hrs (10.00 µM, 24hrs): 0.00
cm.spacing.cv.24hrs (10.00 µM, 24hrs): 0.00
activity at 0.01 µM (1.5 h, 0.01 µM, 90min, read-out: cm.amp.avg.90min): 106%
activity at 0.01 µM (1.5 h, 0.01 µM, 90min, read-out: cm.amp.cv.90min): 96.9%
activity at 0.01 µM (1.5 h, 0.01 µM, 90min, read-out: cm.bpm.90min): 97.8%
activity at 0.01 µM (1.5 h, 0.01 µM, 90min, read-out: cm.decay.rise.90min): 99%
activity at 0.01 µM (1.5 h, 0.01 µM, 90min, read-out: cm.spacing.cv.90min): 101%
activity at 0.1 µM (1.5 h, 0.10 µM, 90min, read-out: cm.amp.avg.90min): 107%
activity at 0.1 µM (1.5 h, 0.10 µM, 90min, read-out: cm.amp.cv.90min): 112%
activity at 0.1 µM (1.5 h, 0.10 µM, 90min, read-out: cm.bpm.90min): 96.5%
activity at 0.1 µM (1.5 h, 0.10 µM, 90min, read-out: cm.decay.rise.90min): 99.7%
activity at 0.1 µM (1.5 h, 0.10 µM, 90min, read-out: cm.spacing.cv.90min): 115%
activity at 1 µM (1.5 h, 1.00 µM, 90min, read-out: cm.amp.avg.90min): 107%
activity at 1 µM (1.5 h, 1.00 µM, 90min, read-out: cm.amp.cv.90min): 120%
activity at 1 µM (1.5 h, 1.00 µM, 90min, read-out: cm.bpm.90min): 87.8%
activity at 1 µM (1.5 h, 1.00 µM, 90min, read-out: cm.decay.rise.90min): 107%
activity at 1 µM (1.5 h, 1.00 µM, 90min, read-out: cm.spacing.cv.90min): 107%
activity at 10 µM (1.5 h, 10.00 µM, 90min, read-out: cm.amp.avg.90min): 94.4%
activity at 10 µM (1.5 h, 10.00 µM, 90min, read-out: cm.amp.cv.90min): 114%
activity at 10 µM (1.5 h, 10.00 µM, 90min, read-out: cm.spacing.cv.90min): 118%
activity at 100 µM (1.5 h, 90min, read-out: cm.amp.avg.90min): 0%
activity at 100 µM (1.5 h, 90min, read-out: cm.amp.cv.90min): 0%
activity at 100 µM (1.5 h, 90min, read-out: cm.bpm.90min): 0%
activity at 100 µM (1.5 h, 90min, read-out: cm.decay.rise.90min): 0%
activity at 100 µM (1.5 h, 90min, read-out: cm.spacing.cv.90min): 0%
activity at 0.01 µM (24 h, 0.01 µM, 24hrs, read-out: cm.bpm.24hrs): 105%
activity at 0.01 µM (24 h, 0.01 µM, 24hrs, read-out: cm.decay.rise.24hrs): 93.3%
activity at 0.01 µM (24 h, 0.01 µM, 24hrs, read-out: cm.spacing.cv.24hrs): 104%
activity at 1 µM (24 h, 1.00 µM, 24hrs, read-out: cm.amp.avg.24hrs): 83.3%
activity at 100 µM (24 h, 24hrs, read-out: cm.amp.avg.24hrs): 0%
activity at 100 µM (24 h, 24hrs, read-out: cm.amp.cv.24hrs): 0%
activity at 100 µM (24 h, 24hrs, read-out: cm.bpm.24hrs): 0%
activity at 100 µM (24 h, 24hrs, read-out: cm.decay.rise.24hrs): 0%
activity at 100 µM (24 h, 24hrs, read-out: cm.spacing.cv.24hrs): 0%
